TGI and GI50 data for ten molecules are collected here from PubChem BioAssay (NCI).

Common to all, as to test: growth of human tumour cells (NCI), 48 h
Assay [1] has as its system HOP-62 NSCLC.
The test system of assay [2] is RPMI-8226 leukemia.
Assay [3] concerns NCI-H522 lung.
For assay [4], the system named is HCT-15 colon.
Assay [5] deals with SK-MEL-2 melanoma.
For assay [6], the system named is HS 578T breast.
The subject of assay [7] is CCRF-CEM leukemia.
The test system of assay [8] is OVCAR-5 ovarian.

The structures appear in SMILES notation.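 Step 1: Grow cells in 96-well plates. Step 2: Expose to compound for 48 hours at 5 concentrations. Step 3: Interpolate endpoints linearly; if unreached, use highest concentration. The concentration for 50% growth inhibition is given as GI50. TGI denotes the concentration required for complete inhibition of growth.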 Some results are limits rather than exact numbers.

Take `CN1CCC(n2[nH]c(-c3ccccc3)c(Cc3ccccc3)c2=O)CC1`: the TGI in assay [1], in assay [2], in assay [3], in assay [4], in assay [5] and in assay [6] was greater than 100 µM throughout. Moreover, the TGI in assay [7] and in assay [8] was greater than 100 µM each time.

On to `CCN1CCC(CC(=O)Nc2n[nH]c3nc(-c4cccs4)c(Br)cc23)CC1`, for which the GI50 in assay [1] was 10.6 µM; in assay [2], 9.42 µM; in assay [3], 6.74 µM; in assay [4], 6.89 µM; in assay [5] it was 6.24 µM; in assay [6] it was 12.3 µM. Further, the GI50 was 9.57 µM in assay [7] and 15.9 µM in assay [8]. For the same molecule, the TGI in assay [1] is greater than 25 µM; in assay [2], 24.8 µM; in assay [3], greater than 16.8 µM; in assay [4], greater than 20.6 µM; in assay [5], 11.4 µM; in assay [6] it was greater than 25 µM. For the same molecule, the TGI in assay [7] and in assay [8] was greater than 25 µM each time.

Regarding `CO/N=C(/COc1c(-c2ccccc2)oc2ccccc2c1=O)c1ccc(F)cc1`, the GI50 is 27.3 µM in assay [1]; 72.1 µM in assay [2]; 36.4 µM in assay [3]; greater than 100 µM in assay [4]; 58.4 µM in assay [5]; 30.2 µM in assay [6]. Besides, the GI50 was 12.6 µM in assay [7] and greater than 100 µM in assay [8]. Moreover, the TGI in assay [1] is 67.8 µM; in assay [2], greater than 100 µM; in assay [3], greater than 100 µM; in assay [4], greater than 100 µM; in assay [5] it was greater than 100 µM; in assay [6] it was greater than 100 µM. Also, the results for the TGI in assay [7] and in assay [8] were 67.9 µM and greater than 100 µM, respectively.

Take `CC[C@@]1(O)C(=O)OCc2c1cc1n(c2=O)Cc2cc3c(NC(=O)CN)cccc3nc2-1`: the TGI in assay [1] is 9.22 µM; in assay [2] it was 28.6 µM; in assay [3], 56.3 µM; in assay [4], greater than 100 µM; in assay [5] it was 14.8 µM; in assay [6], greater than 100 µM. The TGI in assay [7] was 2.33 µM; in assay [8], 63.8 µM.

Turning to `COc1ccc(-c2ccccc2)cc1-c1c(Nc2cc(Cl)cc(Cl)c2O)c(=O)c1=O`, the GI50 in assay [1] was 1.56 µM; in assay [2] it was 0.957 µM; in assay [3], 1.41 µM; in assay [4], 1.5 µM; in assay [5], 1.77 µM; in assay [6] it was 1.25 µM. In addition, the GI50 in assay [7] is 1.64 µM; in assay [8], 1.77 µM. Moreover, the TGI in assay [1] is greater than 50 µM; in assay [2], 2.71 µM; in assay [3], greater than 50 µM; in assay [4], greater than 50 µM; in assay [5], greater than 50 µM; in assay [6], 4.55 µM. Further, the TGI in assay [7] and in assay [8] was greater than 50 µM in each case.

Regarding `CCC(=O)c1ccc2c(c1)N(CCCN1CCN(CCO)CC1)c1ccccc1S2`, the GI50 is 16.2 µM in assay [1]; 8.82 µM in assay [2]; 15.9 µM in assay [3]; 9.88 µM in assay [4]; 17.7 µM in assay [5]; 13.3 µM in assay [6]. Moreover, the GI50 in assay [7] is 9.67 µM; in assay [8], 15.7 µM. In addition, the TGI in assay [1] turned out to be 30.3 µM; in assay [2] it was 27.6 µM; in assay [3], 32.4 µM; in assay [4], 28.3 µM; in assay [5], 33.4 µM; in assay [6] it was 36.5 µM. Besides, the TGI was 27.9 µM in assay [7] and 31.9 µM in assay [8].

For `CCCCCCN1CCN(Cc2ccc(N(CC)CC)cc2)C(=O)C1=O`, the GI50 in assay [1] is 4.97 µM; in assay [2], 3.63 µM; in assay [3], 2.03 µM; in assay [4], 1.07 µM; in assay [5], 3.57 µM; in assay [6] it was 3.14 µM. The GI50 in assay [7] is 2.69 µM; in assay [8] it was 5.41 µM. The TGI in assay [1] is greater than 100 µM; in assay [2] it was 19.2 µM; in assay [3], 5.14 µM; in assay [4], greater than 100 µM; in assay [5] it was 21.2 µM; in assay [6] it was 27.7 µM. Moreover, the TGI in assay [7] and in assay [8] was greater than 100 µM throughout.

In the case of `COc1ccc(-c2cc(-c3nnc(SCC(=O)Nc4ccc(C(C)=O)cc4)o3)c3ccccc3n2)cc1`, the GI50 was 15.7 µM in assay [1]; greater than 100 µM in assay [2]; 30.2 µM in assay [3]; greater than 100 µM in assay [4]; 30.4 µM in assay [5]; 14.2 µM in assay [6]. Further, the GI50 in assay [7] and in assay [8] was greater than 100 µM in each case. Moreover, the TGI in assay [1] was 58.6 µM; in assay [2] it was greater than 100 µM; in assay [3], greater than 100 µM; in assay [4], greater than 100 µM; in assay [5] it was greater than 100 µM; in assay [6] it was 92.3 µM. Also, the TGI in assay [7] and in assay [8] was greater than 100 µM each time.

On to `O=[N+]([O-])/C=C/c1ccc([N+](=O)[O-])cc1`, for which the GI50 in assay [1] is 10.9 µM; in assay [2], 2.25 µM; in assay [3], 3.83 µM; in assay [4], 2.02 µM; in assay [5] it was 14.3 µM; in assay [6], 2.64 µM. Also, the GI50 in assay [7] was 3.63 µM; in assay [8], 4.47 µM. The TGI in assay [1] is 23.7 µM; in assay [2] it was 5.95 µM; in assay [3] it was 15 µM; in assay [4] it was 5.58 µM; in assay [5] it was 28.1 µM; in assay [6], 9.87 µM. In addition, the TGI stood at 84.4 µM in assay [7] and 15.5 µM in assay [8].

In the case of `C=C(C)[C@@H]1CC[C@]2(C(=O)NCCNCCNCCN)CC[C@]3(C)[C@H](CC[C@@H]4[C@@]5(C)CCC(=O)C(C)(C)[C@@H]5CC[C@]43C)[C@@H]12`, the GI50 is 7.91 µM in assay [1]; 6.78 µM in assay [2]; 8.72 µM in assay [3]; 7.65 µM in assay [4]; greater than 50 µM in assay [5]; 8.3 µM in assay [6]. Moreover, the GI50 in assay [7] was 9.65 µM; in assay [8] it was 8.78 µM. The TGI is 16.6 µM in assay [1]; 22 µM in assay [2]; 18.5 µM in assay [3]; 15.7 µM in assay [4]; greater than 50 µM in assay [5]; 19.2 µM in assay [6]. Further, the TGI in assay [7] is 27.8 µM; in assay [8] it was 18.4 µM.
